Laboratory results from the supplement of paper PMC10307832.

What was measured:
Experiment in all cases: relative viability (nuclei count vs DMSO), 5 days (fraction); higher = more cells survive
[1] = compound: C1CC1C(=O)NC2=NNC3=C2C=CC(=C3)C4=CC(=CC=C4)C(=O)NC5CC5 [XMD13-2] + CC(=O)Nc1cccc(-n2c(=O)n(C3CC3)c(=O)c3c(Nc4ccc(I)cc4F)n(C)c(=O)c(C)c32)c1 [Trametinib] (partner 0.02 µM)
How it was run: (§1)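 The day after seeding in 1536-well plates, lung cancer cell lines were treated by pin tool with a single drug, or with a fixed anchor-drug dose together with five library-drug doses (not always all listed) in √10 steps. After 5 days, a combined fix-and-stain solution (final 0.05% Triton X-100, 1% formaldehyde, 1 ug/ml Hoechst) was added. Nuclei counted on 4× images gave relative viability as treated counts over vehicle counts, reported as the median of duplicate plates.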

[2] = compound: C1CC1C(=O)NC2=NNC3=C2C=CC(=C3)C4=CC(=CC=C4)C(=O)NC5CC5 [XMD13-2] + CC(=O)c1c(C)c2cnc(Nc3ccc(N4CCNCC4)cn3)nc2n(C2CCCC2)c1=O [Palbociclib] (partner 0.5 µM)
How it was run: as §1

[3] = compound: C1CC1C(=O)NC2=NNC3=C2C=CC(=C3)C4=CC(=CC=C4)C(=O)NC5CC5 [XMD13-2] + N=C(N)NC(=N)NCCc1ccccc1 [Phenformin] (partner 250 µM)
How it was run: as §1

[4] = compound: C1CC1C(=O)NC2=NNC3=C2C=CC(=C3)C4=CC(=CC=C4)C(=O)NC5CC5 [XMD13-2] + Nc1nc2[nH]cc(CCc3ccc(C(=O)N[C@@H](CCC(=O)O)C(=O)O)cc3)c2c(=O)[nH]1 [Pemetrexed] (partner 0.2 µM)
How it was run: as §1

| Cell Line | relative viability ([1]; first compound 0.05 µM) | relative viability ([1]; first compound 0.1581 µM) | relative viability ([1]; first compound 0.5 µM) | relative viability ([1]; first compound 1.581 µM) | relative viability ([1]; first compound 5 µM) | relative viability ([2]; first compound 0.05 µM) | relative viability ([2]; first compound 0.1581 µM) | relative viability ([2]; first compound 0.5 µM) | relative viability ([2]; first compound 1.581 µM) | relative viability ([2]; first compound 5 µM) | relative viability ([3]; first compound 0.05 µM) | relative viability ([3]; first compound 0.1581 µM) | relative viability ([3]; first compound 0.5 µM) | relative viability ([3]; first compound 1.581 µM) | relative viability ([3]; first compound 5 µM) | relative viability ([4]; first compound 0.05 µM) | relative viability ([4]; first compound 0.1581 µM) | relative viability ([4]; first compound 0.5 µM) | relative viability ([4]; first compound 1.581 µM) | relative viability ([4]; first compound 5 µM) |
| --- | --- | --- | --- | --- | --- | --- | --- | --- | --- | --- | --- | --- | --- | --- | --- | --- | --- | --- | --- | --- |
| NCI-H1975 | 0.27 | 0.327 | 0.375 | 0.358 | 0.382 | 0.77 | 0.607 | 0.538 | 0.678 | 0.61 | 0.436 | 0.395 | 0.407 | 0.42 | 0.401 | 0.295 | 0.286 | 0.295 | 0.316 | 0.305 |
| NCI-H2085 | 0.62 | 0.568 | 0.472 | 0.5 | 0.514 | 0.488 | 0.477 | 0.481 | 0.429 | 0.472 | 0.825 | 0.715 | 0.759 | 0.661 | 0.802 | 0.959 | 0.838 | 0.977 | 0.789 | 1.03 |
| NCI-H3122 | 0.251 | 0.198 | 0.205 | 0.235 | 0.214 | 0.191 | 0.202 | 0.142 | 0.177 | 0.181 | 0.612 | 0.37 | 0.4 | 0.374 | 0.353 | 0.193 | 0.195 | 0.199 | 0.199 | 0.195 |
| NCI-H1651 | 0.909 | 0.843 | 0.789 | 0.869 | 0.834 | 0.543 | 0.507 | 0.508 | 0.527 | 0.503 | 0.382 | 0.323 | 0.392 | 0.37 | 0.343 | 0.607 | 0.56 | 0.577 | 0.647 | 0.775 |
| ABC-1 |  |  |  |  |  | 0.72 | 0.606 | 0.78 |  | 0.556 | 0.219 | 0.24 | 0.242 | 0.267 | 0.26 |  |  |  |  |  |
| NCI-H1563 |  |  |  |  |  |  |  |  |  |  | 0.683 | 0.697 | 0.64 | 0.669 | 0.679 | 0.76 | 0.806 | 0.741 | 0.75 | 0.913 |
| NCI-H727 | 0.401 | 0.431 | 0.37 | 0.382 | 0.38 | 0.677 | 0.691 | 0.758 | 0.601 | 0.627 | 0.619 | 0.518 | 0.556 | 0.584 | 0.525 |  |  |  |  |  |
| NCI-H1648 | 0.526 |  | 0.454 | 0.55 | 0.374 | 0.309 |  | 0.273 | 0.275 | 0.235 |  |  |  |  |  | 0.702 |  | 0.726 | 0.705 | 0.719 |
| A549 |  |  |  |  |  |  |  |  |  |  | 0.547 | 0.152 | 0.153 | 0.12 | 0.232 |  |  |  |  |  |
| NCI-H596 | 0.826 | 0.857 | 0.965 | 0.954 | 0.798 |  |  |  |  |  | 0.768 | 0.863 | 0.78 | 0.913 | 0.836 | 0.478 | 0.454 | 0.518 | 0.456 | 0.492 |
